From patent publication US20090011400A1, “Substrate switched ammonia lyases and mutases” (The Salk Institute for Biological Studies and The Regents …, priority 2006, published 2009)

Key:
[1] = target: T1, Rhodobacter sphaeroides tyrosine ammonia lyase (RsTAL), wild type (Cereibacter sphaeroides, UniProt Q3IWB0); assay: Ammonia lyase steady-state kinetics, wild type RsTAL; format: biochemical; conditions: wt RsTAL
T1 construct: octahistidine (His8), thrombin-cleavable (N, cleaved yes); made in house; host or cells: E. coli BL21(DE3)
T1 sequence (Q3IWB0 1-523): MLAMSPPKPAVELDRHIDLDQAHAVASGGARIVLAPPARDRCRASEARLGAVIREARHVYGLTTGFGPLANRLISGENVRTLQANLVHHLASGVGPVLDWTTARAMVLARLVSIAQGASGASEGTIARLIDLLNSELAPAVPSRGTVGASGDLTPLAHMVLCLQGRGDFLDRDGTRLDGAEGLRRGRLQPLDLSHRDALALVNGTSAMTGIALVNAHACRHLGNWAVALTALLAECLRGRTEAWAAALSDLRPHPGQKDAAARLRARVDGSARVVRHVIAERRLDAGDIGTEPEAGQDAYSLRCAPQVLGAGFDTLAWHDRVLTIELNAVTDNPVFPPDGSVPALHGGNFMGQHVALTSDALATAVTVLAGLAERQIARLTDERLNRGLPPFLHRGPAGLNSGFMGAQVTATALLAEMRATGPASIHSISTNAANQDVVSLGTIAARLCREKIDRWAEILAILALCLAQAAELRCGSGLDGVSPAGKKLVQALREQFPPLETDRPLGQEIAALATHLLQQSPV
Method: (§1) TAL activity was measured spectrophotometrically by monitoring the formation of a conjugated aryl-acid product. The conversion of L-Tyr to p-coumarate was followed at 310 nm and L-Phe to cinnamate at 280 nm. The assay mixture (total volume 0.5 ml) contained 0.1 M Tris HCl (pH 8.5), and for each fixed amount of TAL, eight different initial concentrations of amino acid substrate. After pre-incubation of the enzyme at 37° C. for 2 min, reactions were initiated by the addition of substrate, and formation of product was monitored for 5 min. For wild type RsTAL, activity was assayed with 7.5 μg protein and initial L-Tyr concentrations between 0.01 and 2.4 mM, and PAL activity was assayed with 30 μg protein and initial L-Phe concentrations between 3.2 and 51.2 mM. For the RsTAL H89F mutant, PAL activity was assayed with 10 μg protein and initial L-Phe concentrations between 0.05 and 5.2 mM. Each series of assays were performed in triplicate, and a Hanes plot was used for the estimation of steady-state kinetic constants.

[2] = target: T2, Rhodobacter sphaeroides tyrosine ammonia lyase (RsTAL) variant H89F (His89Phe) (Cereibacter sphaeroides, UniProt Q3IWB0, H89F); assay: Ammonia lyase steady-state kinetics, H89F RsTAL
T2 sequence (Q3IWB0 1-523 H89F): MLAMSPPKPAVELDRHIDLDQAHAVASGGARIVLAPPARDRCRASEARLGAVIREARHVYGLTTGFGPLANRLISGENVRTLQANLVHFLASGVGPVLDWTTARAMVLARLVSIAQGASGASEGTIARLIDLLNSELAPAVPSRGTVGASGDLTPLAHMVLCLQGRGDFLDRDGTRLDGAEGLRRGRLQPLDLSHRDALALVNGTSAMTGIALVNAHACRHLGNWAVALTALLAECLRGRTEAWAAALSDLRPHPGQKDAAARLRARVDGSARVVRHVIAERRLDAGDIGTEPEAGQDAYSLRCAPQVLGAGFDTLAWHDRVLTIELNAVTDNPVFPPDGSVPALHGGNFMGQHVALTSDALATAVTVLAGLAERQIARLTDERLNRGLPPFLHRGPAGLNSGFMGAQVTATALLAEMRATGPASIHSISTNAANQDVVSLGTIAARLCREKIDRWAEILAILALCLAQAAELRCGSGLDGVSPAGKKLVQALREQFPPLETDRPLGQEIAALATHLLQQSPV
Method: (§2) TAL activity was measured spectrophotometrically by monitoring the formation of a conjugated aryl-acid product. The conversion of L-Tyr to p-coumarate was followed at 310 nm and L-Phe to cinnamate at 280 nm. The assay mixture (total volume 0.5 ml) contained 0.1 M Tris HCl (pH 8.5), and for each fixed amount of TAL, eight different initial concentrations of amino acid substrate. After pre-incubation of the enzyme at 37° C. for 2 min, reactions were initiated by the addition of substrate, and formation of product was monitored for 5 min. […] For the RsTAL H89F mutant, PAL activity was assayed with 10 μg protein and initial L-Phe concentrations between 0.05 and 5.2 mM. Each series of assays were performed in triplicate, and a Hanes plot was used for the estimation of steady-state kinetic constants.

[3] = system: SmPAL (Streptomyces maritimus phenylalanine ammonia lyase); conditions: cited from earlier work
[4] = system: PcPAL (Petroselinum crispum phenylalanine ammonia lyase); conditions: cited from earlier work
[5] = system: ZmPAL (Z. mays phenylalanine ammonia lyase); conditions: cited from earlier work
[6] = system: SeTAL (Saccharothrix espanaensis tyrosine ammonia lyase); conditions: cited from earlier work
[7] = system: PlPAL (Photorhabdus luminescens phenylalanine ammonia lyase); conditions: cited from earlier work
[8] = system: RcTAL (Rhodobacter capsulatus tyrosine ammonia lyase); conditions: cited from earlier work
RsTAL = target: T3, RsTAL (Cereibacter sphaeroides, UniProt Q3IWB0); assay: Crystal soaking experiments of RsTAL with ligands; format: binding, Rhodobacter sphaeroides; conditions: wild type RsTAL crystals soaked with ligand
T3 construct: His8 (octahistidine), thrombin-cleavable (N, cleaved yes); made in house; host or cells: E. coli BL21(DE3)
T3 sequence (Q3IWB0 1-523): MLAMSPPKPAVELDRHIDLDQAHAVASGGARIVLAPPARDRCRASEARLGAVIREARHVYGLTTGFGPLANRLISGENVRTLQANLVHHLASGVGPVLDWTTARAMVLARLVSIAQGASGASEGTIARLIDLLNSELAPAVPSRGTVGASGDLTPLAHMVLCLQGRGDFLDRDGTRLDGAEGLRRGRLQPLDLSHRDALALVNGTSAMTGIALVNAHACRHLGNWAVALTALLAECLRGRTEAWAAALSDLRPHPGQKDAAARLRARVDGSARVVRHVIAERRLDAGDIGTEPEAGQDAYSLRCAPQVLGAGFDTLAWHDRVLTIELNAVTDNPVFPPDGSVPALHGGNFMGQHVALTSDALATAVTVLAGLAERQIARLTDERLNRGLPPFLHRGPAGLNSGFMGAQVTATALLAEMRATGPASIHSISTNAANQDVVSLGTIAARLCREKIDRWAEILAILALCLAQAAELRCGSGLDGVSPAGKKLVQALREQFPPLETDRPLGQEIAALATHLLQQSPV
Method: Monoclinic crystals of RsTAL (space group […]) were grown from a 1:1 mixture of protein solution (20 mg/ml in 12.5 mM Tris-HCl, pH 7.5, 50 mM NaCl) and a reservoir solution (0.1 M MOPSO—Na^+, pH 7.0, 7% (w/v) polyethylene glycol 8000, 0.3 M ammonium acetate, 2 mM dithiothreitol, 35 mM cyclohexylbutanoyl-N-hydroxyethylglucamide) using vapor diffusion against reservoir solutions at 4° C. Crystal growth typically occurred over a period of one to three weeks and was expedited through microseeding. […] Crystals of RsTAL in complex with small molecule ligands were produced by soaking crystals for 24-48 hrs in reservoir solutions supplemented with 10-20 mM coumaric acid, caffeic acid, cinnamic acid or AIP.

[9] = substrate: N[C@@H](Cc1ccccc1)C(=O)O; assay: purified protein, by the assay type; conditions: other: H89F RsTAL, pH 8.5, 37° C.
Method: as §2

[10] = PAL activity: spectrophotometric steady-state kinetics, L-Phe to cinnamate; format: biochemical; conditions: substrate L-Phe
Method: as §1

[11] = substrate: N[C@@H](Cc1ccc(O)cc1)C(=O)O; assay: Ammonia lyase steady-state kinetics, wild type RsTAL; format: biochemical, Rhodobacter sphaeroides; conditions: other: wt RsTAL, pH 8.5, 37° C.
Method: as §1

[12] = substrate: N[C@@H](Cc1ccccc1)C(=O)O; assay: as above; format: biochemical, Rhodobacter sphaeroides; conditions: other: wt RsTAL, pH 8.5, 37° C.
Method: as §1

For `N[C@@H](Cc1ccc(O)c(O)c1)C(=O)O` [L-DOPA, L-3,4-dihydroxyphenylalanine], the “activity with L-DOPA” value ([1]; deamination) was “significant activity”.

In the case of `N[C@@H](Cc1ccccc1)C(=O)O` [L-Phe], the kcat ([2]; pH 8.5, 37° C.) is listed as 8.15 s⁻¹, the Km [3] is listed as 23 µM and the kcat [3] is listed as 0.0048 s⁻¹. The Km [4] was 17.2 µM, the kcat [4] was 22 s⁻¹ and the Km [5] was 270 µM. For the same molecule, the kcat [5] was 10 s⁻¹, the Km [6] was 2860 µM and the kcat [6] was 0.0038 s⁻¹. For the same molecule, the Km [7] was 320 µM, the kcat [7] was 0.8 s⁻¹ and the Km [8] was 1280 µM. The kcat [8] was 15.1 s⁻¹.

For `N[C@@H](Cc1ccc(O)cc1)C(=O)O` [L-Tyr], the “Km better for L-Tyr as compared to L-Phe” value ([1]; L-Tyr vs L-Phe) was 150 fold, the kcat ([1]; pH 8.5, 37° C.) was 4.32 s⁻¹ and the “activity with L-Tyr” value [2] was “lacks activity”. The Km [4] was 2500 µM, the kcat [4] was 0.3 s⁻¹ and the Km [5] was 19 µM. For the same molecule, the kcat [5] was 0.9 s⁻¹, the Km [6] was 15.5 µM and the kcat [6] was 0.015 s⁻¹. The Km [8] was 15.6 µM and the kcat [8] was 27.7 s⁻¹.

In the case of `O=C(O)C=Cc1ccccc1` [cinnamic acid], the “binding observed in RsTAL crystals (in words)” value (RsTAL) is reported as “no significant binding”.

B1: Rhodobacter sphaeroides tyrosine ammonia lyase (RsTAL) variant H89F (His89Phe) (Cereibacter sphaeroides 2.4.1; H89F) (protein)
chain: MLAMSPPKPAVELDRHIDLDQAHAVASGGARIVLAPPARDRCRASEARLGAVIREARHVYGLTTGFGPLANRLISGENVRTLQANLVHFLASGVGPVLDWTTARAMVLARLVSIAQGASGASEGTIARLIDLLNSELAPAVPSRGTVGASGDLTPLAHMVLCLQGRGDFLDRDGTRLDGAEGLRRGRLQPLDLSHRDALALVNGTSAMTGIALVNAHACRHLGNWAVALTALLAECLRGRTEAWAAALSDLRPHPGQKDAAARLRARVDGSARVVRHVIAERRLDAGDIGTEPEAGQDAYSLRCAPQVLGAGFDTLAWHDRVLTIELNAVTDNPVFPPDGSVPALHGGNFMGQHVALTSDALATAVTVLAGLAERQIARLTDERLNRGLPPFLHRGPAGLNSGFMGAQVTATALLAEMRATGPASIHSISTNAANQDVVSLGTIAARLCREKIDRWAEILAILALCLAQAAELRCGSGLDGVSPAGKKLVQALREQFPPLETDRPLGQEIAALATHLLQQSPV
With B1 the Km [9] was 434 µM.

B2: H89F RsTAL: engineered RsTAL variant with the single amino acid substitution H89F (His 89 replaced by Phe) (protein)
chain: MLAMSPPKPAVELDRHIDLDQAHAVASGGARIVLAPPARDRCRASEARLGAVIREARHVYGLTTGFGPLANRLISGENVRTLQANLVHFLASGVGPVLDWTTARAMVLARLVSIAQGASGASEGTIARLIDLLNSELAPAVPSRGTVGASGDLTPLAHMVLCLQGRGDFLDRDGTRLDGAEGLRRGRLQPLDLSHRDALALVNGTSAMTGIALVNAHACRHLGNWAVALTALLAECLRGRTEAWAAALSDLRPHPGQKDAAARLRARVDGSARVVRHVIAERRLDAGDIGTEPEAGQDAYSLRCAPQVLGAGFDTLAWHDRVLTIELNAVTDNPVFPPDGSVPALHGGNFMGQHVALTSDALATAVTVLAGLAERQIARLTDERLNRGLPPFLHRGPAGLNSGFMGAQVTATALLAEMRATGPASIHSISTNAANQDVVSLGTIAARLCREKIDRWAEILAILALCLAQAAELRCGSGLDGVSPAGKKLVQALREQFPPLETDRPLGQEIAALATHLLQQSPV
modifications: H89F mutant of Rhodobacter sphaeroides tyrosine ammonia lyase
With B2 the “increase in kcat/Km in comparison to wild type RsTAL” value [10] was 17 fold.

B3: Rhodobacter sphaeroides tyrosine ammonia lyase (RsTAL), wild type (Cereibacter sphaeroides 2.4.1) (protein)
chain: MLAMSPPKPAVELDRHIDLDQAHAVASGGARIVLAPPARDRCRASEARLGAVIREARHVYGLTTGFGPLANRLISGENVRTLQANLVHHLASGVGPVLDWTTARAMVLARLVSIAQGASGASEGTIARLIDLLNSELAPAVPSRGTVGASGDLTPLAHMVLCLQGRGDFLDRDGTRLDGAEGLRRGRLQPLDLSHRDALALVNGTSAMTGIALVNAHACRHLGNWAVALTALLAECLRGRTEAWAAALSDLRPHPGQKDAAARLRARVDGSARVVRHVIAERRLDAGDIGTEPEAGQDAYSLRCAPQVLGAGFDTLAWHDRVLTIELNAVTDNPVFPPDGSVPALHGGNFMGQHVALTSDALATAVTVLAGLAERQIARLTDERLNRGLPPFLHRGPAGLNSGFMGAQVTATALLAEMRATGPASIHSISTNAANQDVVSLGTIAARLCREKIDRWAEILAILALCLAQAAELRCGSGLDGVSPAGKKLVQALREQFPPLETDRPLGQEIAALATHLLQQSPV
notes: octahistidine (His8), thrombin-cleavable (N, cleaved yes); made in house; host or cells: E. coli BL21(DE3)
B3 showed a Km [11] of 74.2 µM, a Km [12] of 11400 µM and a kcat [12] of 13.1 s⁻¹. It also gave a kcat/Km [12] of 1100 M⁻¹ s⁻¹.
